Here are results for 20 compounds from patent US8604024B2, “Compounds for the reduction of beta-amyloid production” (Bristol-Myers Squibb Company, priority 2011, dated 2013).

Structures can show the parent of a compound that is named as a salt. Some results are limits rather than exact numbers.

The first experiment concerns Aβ1-42 production in H4 cells stably transfected with APP751 containing the Swedish mutation. In words: Cellular assay for inhibition of Aβ1-42 production (H4 APP751 SWE clone 8.20). To be noted: 19 h, H4 APP751 SWE clone 8.20 cells, 19 h incubation; read-out: Aβ42 cellular IC50. The class given is cell-based. As to the method: Cellular Assays for Inhibition of Aβ1-40 and Aβ1-42 Production
H4 cells stably transfected with APP751 containing the Swedish mutation (H4 APP751 SWE clone 8.20, developed at BMS) were maintained in log phase through twice weekly passage at a 1:20 split. […] Following incubation for 19 h in 5% CO2 at 37° C., plates were briefly centrifuged (1000 rpm, 5 min). A 10 μl aliquot from each well was transferred to a second assay plate (Costar 3709) for Aβ40 measurements. Antibody cocktails were freshly prepared by dilution into 40 mM Tris-HCl (pH 7.4) with 0.2% BSA and added to assay plates. For Aβ42 measurements, antibodies specific for the Aβ42 neoepitope (565, developed at BMS; conjugated to the Wallac reagent (Perkin Elmer)) and the N-terminal sequence of Aβ peptide (26D6, developed at SIBIA; conjugated to APC (Perkin Elmer)) were mixed and 20 μl of the mixture was added to each well of the incubated cell plate yielding a final concentration of 0.8 ng/well 565 and 75 ng/well 26D6. For the Aβ40 measurements, antibodies specific for the Aβ40 neoepitope (TSD, developed at BMS; conjugated to the Wallac reagent (Perkin Elmer)) and 26D6 as described above were mixed and 20 μl of the mixture was added to the 10 μl aliquots which had been removed previously from the cell plate yielding a final concentration of 1.6 ng/well TSD and 17.5 ng/well 26D6. Assay plates containing antibodies were sealed with aluminum foil and incubated overnight at 4° C. Signal was determined using a Viewlux counter (Perkin Elmer) and IC50 values determined using curve fitting in CurveMaster (Excel Fit based).
As to `C[C@]12N=C(N)SC[C@H]1CCc1ccc(-c3cncc(Cl)c3)cc12` (relative stereo) [Example 6, rel-(4aS,10bS)-9-(5-Chloropyridin-3-yl)-10b-methyl-4a,5,6,10b-tetrahydro-4H-naphtho[1,2-d][1,3]thiazin-2-amine bis(2,2,2-trifluoroacetate)], the IC50 was found to be 2.6 µM.

On to `C[C@]12N=C(N)SC[C@H]1CCOc1ccc(Nc3ncccc3C#N)cc12` (relative stereo) [Example 39, rel-2-(((4aS,11bS)-2-Amino-11b-methyl-4a,5,6,11b-tetrahydro-4H-benzo[2,3]oxepino[4,5-d][1,3]thiazin-10-yl)amino)nicotinonitrile, bis(2,2,2-trifluoroacetate)], for which the IC50 is over 30 µM.

On to `CC#Cc1cncc(-c2ccc3c(c2)[C@@]2(C)N=C(N)SC[C@H]2CCO3)c1` (relative stereo) [Example 22, rel-(4aS,11bS)-11b-methyl-10-(5-(prop-1-yn-1-yl)pyridin-3-yl)-4a,5,6,11b-tetrahydro-4H-benzo[2,3]oxepino[4,5-d][1,3]thiazin-2-amine, bis(2,2,2-trifluoroacetate)], for which the IC50 is 0.96 µM.

In the case of `C[C@@]12N=C(N)SC[C@@H]1CCCc1ccc(NC(=O)c3ncc(Cl)cc3Cl)cc12` [Example 45b, N-((4aR,11bR)-2-Amino-11b-methyl-4,4a,5,6,7,11b-hexahydrobenzo[6,7]cyclohepta[1,2-d][1,3]thiazin-10-yl)-3,5-dichloropicolinamide], the half-maximal inhibitory concentration (IC50) worked out at 0.92 µM.

Regarding `Cn1cc(-c2ccc3c(c2)[C@@]2(C)N=C(N)SC[C@H]2CCO3)cn1` (relative stereo) [Example 23, rel-(4aS,11bS)-11b-Methyl-10-(1-methyl-1H-pyrazol-4-yl)-4a,5,6,11b-tetrahydro-4H-benzo[2,3]oxepino[4,5-d][1,3]thiazin-2-amine, bis(2,2,2-trifluoroacetate)], the IC50 came out at 5.1 µM.

On to `C[C@]12N=C(N)SC[C@H]1CCOc1ccc(-c3cn[nH]c3)cc12` (relative stereo) [Example 24, rel-(4aS,11bS)-11b-methyl-10-(1H-pyrazol-4-yl)-4a,5,6,11b-tetrahydro-4H-benzo[2,3]oxepino[4,5-d][1,3]thiazin-2-amine, bis(2,2,2-trifluoroacetate)], for which the IC50 came to 8.1 µM.

In the case of `COc1cccc(-c2ccc3c(c2)[C@@]2(C)N=C(N)SC[C@H]2CCC3)c1` (relative stereo) [Example 12, rel-(4aS,11bS)-10-(3-methoxyphenyl)-11b-methyl-4,4a,5,6,7,11b-hexahydrobenzo[6,7]cyclohepta[1,2-d][1,3]thiazin-2-amine, 2,2,2-trifluoroacetate], the IC50 amounted to 3.4 µM.

Take `CC#Cc1cncc(-c2ccc3c(c2)[C@@]2(C)N=C(N)SC[C@H]2CCO3)c1` [Example 22b, (4aS,11bS)-11b-Methyl-10-(5-(prop-1-yn-1-yl)pyridin-3-yl)-4a,5,6,11b-tetrahydro-4H-benzo[2,3]oxepino[4,5-d][1,3]thiazin-2-amine]: the IC50 stood at 1.4 µM.

As for `C[C@]12N=C(N)SC[C@H]1CCc1ccc(-c3cn[nH]c3)cc12` (relative stereo) [Example 19, rel-(4aS,10bS)-10b-Methyl-9-(1H-pyrazol-4-yl)-4a,5,6,10b-tetrahydro-4H-naphtho[1,2-d][1,3]thiazin-2-amine, bis(2,2,2-trifluoroacetate)], the half-maximal inhibitory concentration (IC50) came out at 8 µM.

Turning to `C[C@]12N=C(N)SC[C@H]1CCCc1ccc(NC(=O)c3ccc(Cl)cn3)cc12` [Example 3a, 5-Chloro-pyridine-2-carboxylic acid ((4aS,11bS)-2-amino-11b-methyl-4,4a,5,6,7,11b-hexahydro-3-thia-1-aza-dibenzo[a,c]cyclohepten-10-yl)-amide], the IC50 stood at 0.0088 µM.

Consider `C[C@]12N=C(N)SC[C@H]1CCc1ccc(NC(=O)c3ncc(F)cc3F)cc12` (relative stereo) [Example 8, rel-N-((4aS,10bS)-2-Amino-10b-methyl-4a,5,6,10b-tetrahydro-4H-naphtho[1,2-d][1,3]thiazin-9-yl)-3,5-difluoropicolinamide, 2,2,2-trifluoroacetate], for which the IC50 was determined as 3.1 µM.

For the compound `C[C@]12N=C(N)SC[C@H]1CCOc1ccc(-c3cnoc3)cc12` (relative stereo) [Example 25, rel-(4aS,11bS)-10-(Isoxazol-4-yl)-11b-methyl-4a,5,6,11b-tetrahydro-4H-benzo[2,3]oxepino[4,5-d][1,3]thiazin-2-amine, 2,2,2-trifluoroacetate salt], the half-inhibitory concentration (IC50) was 18 µM.

As for `C[C@]12N=C(N)SC[C@H]1CCOc1ccc(NC(=O)c3ccc(C#N)cn3)cc12` (relative stereo) [Example 35, rel-N-((4aS,11bS)-2-Amino-11b-methyl-4a,5,6,11b-tetrahydro-4H-benzo[2,3]oxepino[4,5-d][1,3]thiazin-10-yl)-5-cyanopicolinamide, 2,2,2-trifluoroacetate salt], the IC50 stood at 0.028 µM.

Consider `C[C@]12N=C(N)SC[C@H]1CCOc1ccc(Nc3ncccc3Cl)cc12` (relative stereo) [Example 37, rel-(4aS,11bS)—N10-(3-Chloropyridin-2-yl)-11b-methyl-4a,5,6,11b-tetrahydro-4H-benzo[2,3]oxepino[4,5-d][1,3]thiazine-2,10-diamine, bis(2,2,2-trifluoroacetate)], for which the half-maximal inhibitory concentration (IC50) was 1.4 µM.

Regarding `C[C@]12N=C(N)SC[C@H]1CCOc1ccc(-c3cc4cc(C#N)ccc4[nH]3)cc12` (relative stereo) [Example 28, rel-2-((4aS,11bS)-2-amino-11b-methyl-4a,5,6,11b-tetrahydro-4H-benzo[2,3]oxepino[4,5-d][1,3]thiazin-10-yl)-1H-indole-5-carbonitrile, 2,2,2-trifluoroacetate salt], the IC50 stood at 9.7 µM.

With `C[C@]12N=C(N)SC[C@H]1CCc1ccc(NC(=O)c3ccc(Cl)cn3)cc12` (relative stereo) [Example 7, rel-N-((4aS,10bS)-2-Amino-10b-methyl-4a,5,6,10b-tetrahydro-4H-naphtho[1,2-d][1,3]thiazin-9-yl)-5-chloropicolinamide, 2,2,2-trifluoroacetate], the IC50 is 1.1 µM.

Turning to `C[C@]12N=C(N)SC[C@H]1CCCc1ccc(-c3cncc(F)c3)cc12` (relative stereo) [Example 14, rel-(4aS,11bS)-10-(5-fluoropyridin-3-yl)-11b-methyl-4,4a,5,6,7,11b-hexahydrobenzo[6,7]cyclohepta[1,2-d][1,3]thiazin-2-amine, bis(2,2,2-trifluoroacetate)], the IC50 turned out to be 2.1 µM.

For `NC1=N[C@H]2c3cc(-c4cncnc4)ccc3CCC[C@H]2CS1` [Example 1b, (4aR,11bR)-10-Pyrimidin-5-yl-4,4a,5,6,7,11b-hexahydro-3-thia-1-aza-dibenzo[a,c]cyclohepten-2-ylamine], the IC50 came to 28 µM.

For the compound `C[C@@]12N=C(N)SC[C@@H]1CCCc1ccc(NC(=O)c3ccc(OC(F)F)cn3)cc12` [Example 46b, N-((4aR,11bR)-2-Amino-11b-methyl-4,4a,5,6,7,11b-hexahydrobenzo[6,7]cyclohepta[1,2-d][1,3]thiazin-10-yl)-5-(difluoromethoxy)picolinamide], the IC50 is 3.5 µM.

The same experiment, now with this note: H4 APP751 SWE clone 8.20 cells, 19 h incubation; read-out: Aβ42 cellular IC50.
Take `C[C@@]12N=C(N)SC[C@@H]1CCOc1ccc(NC(=O)c3ccc(C#N)cn3)cc12` (stereo in doubt) [Example 35a, N-((4aR,11bR)-2-amino-11b-methyl-4a,5,6,11b-tetrahydro-4H-benzo[2,3]oxepino[4,5-d][1,3]thiazin-10-yl)-5-cyanopicolinamide]: the 50% inhibitory concentration (IC50) stood at 5.1 µM.

As a reminder, the IC50 is the concentration that inhibits the measured activity by half.
